{"source": "patent US11491120B2", "about": "“Pharmacological prophylactics against stress-induced affective disorders in females” (The Trustees of Columbia University in the City of New York, priority 2017, dated 2022)", "key": {"female 129S6/SvEv mice [1]": {"test_system": "female 129S6/SvEv mice", "experiment": "Elevated plus maze (EPM)", "format": "in vivo, mouse", "details": "10 mg/kg, 1 week prophylactic drug, learned helplessness stress", "protocol": "The EPM was administered as previously described (58), with the exception that videos were scored using ANY-maze behavioral tracking software (Stoelting Co., Wood Dale, Ill.).\nWe have previously shown that prophylactic (R,S)-ketamine attenuates helpless behavior in male mice (18). To validate these findings in females, female mice were administered saline, (R,S)-ketamine, or (2R,6R)-HNK one week prior to LH training (FIG. 4A). Two weeks later, mice were tested for escape latency and for depressive- and anxiety-like behaviors in the FST and elevated plus maze (EPM). CFC was again administered following these behavioral assays."}, "male mice": {"test_system": "male mice", "details": "as previously shown; cited from earlier work"}, "humans": {"test_system": "humans", "details": "sub-anesthetic doses, cited from earlier work"}, "mice": {"test_system": "mice", "details": "sub-anesthetic doses; cited from earlier work"}, "female 129S6/SvEv mice [2]": {"test_system": "female 129S6/SvEv mice", "experiment": "Contextual fear conditioning (CFC), 3-shock, freezing in training and context re-exposure", "details": "for p, Sal vs. drug, Dunnett test: Freezing (Average), Contextual Fear Conditioning Re-exposure / p, Freezing (min 1-5) / p, Freezing (min 2) / p, Freezing (min 3) / p, Freezing (min 4) / p, Freezing (min 5): 1 week prophylactic drug; for Freezing during 3-shock CFC training vs saline: 2.5, 10, or 30 mg/kg, 1 week before CFC"}, "[3]": {"details": "Contextual Fear Conditioning Re-exposure, Dunnett test Sal vs. drug (2.5)"}, "[4]": {"details": "Contextual Fear Conditioning Re-exposure, Dunnett test Sal vs. drug (10)"}, "[5]": {"details": "Contextual Fear Conditioning Re-exposure, Dunnett test Sal vs. drug (30)"}, "[6]": {"details": "Contextual Fear Conditioning Training, Dunnett test Sal vs. drug (2.5)"}, "[7]": {"details": "Contextual Fear Conditioning Training, Dunnett test Sal vs. drug (10)"}}}
{"smiles": "CNC1(c2ccccc2Cl)CCCCC1=O", "note": "(racemic) [(R,S)-ketamine, (RS)-2-(2-chlorophenyl)-2-(methylamino)cyclohexanone]", "values": [{"measurement": "* (significance), Sal vs. drug, Fisher's PLSD: Time in Closed Arms Average (min 1-6), Elevated Plus Maze", "setting": "female 129S6/SvEv mice [1]", "result": "* (* p<0.05)"}, {"measurement": "* (significance), Sal vs. drug, Fisher's PLSD: Time in Open Arms Average (min 1-6), Elevated Plus Maze", "setting": "female 129S6/SvEv mice [1]", "result": "* (* p<0.05)"}, {"measurement": "P, Sal vs. drug, Fisher's PLSD: Time in Closed Arms Average (min 1-6), Elevated Plus Maze", "setting": "female 129S6/SvEv mice [1]", "result": 0.0186}, {"measurement": "P, Sal vs. drug, Fisher's PLSD: Time in Open Arms Average (min 1-6), Elevated Plus Maze", "setting": "female 129S6/SvEv mice [1]", "result": 0.0147}, {"measurement": "Prophylactically effective dose in males", "setting": "male mice", "result": 30, "unit": "mg/kg"}, {"measurement": "Antidepressant onset", "setting": "humans; humans", "result": 2, "unit": "h"}, {"measurement": "Duration of antidepressant effect", "setting": "humans", "result": "up to 2 weeks"}, {"measurement": "Antidepressant onset", "setting": "mice", "result": 30, "unit": "min"}, {"measurement": "p, Sal vs. drug, Dunnett test: Freezing (Average), Contextual Fear Conditioning Re-exposure", "setting": "female 129S6/SvEv mice [2]; 2.5 mg/kg", "result": 0.7546}, {"measurement": "p, Sal vs. drug, Dunnett test: Freezing (Average), Contextual Fear Conditioning Re-exposure", "setting": "female 129S6/SvEv mice [2]; 10 mg/kg", "result": 0.8986}, {"measurement": "p, Sal vs. drug, Dunnett test: Freezing (Average), Contextual Fear Conditioning Re-exposure", "setting": "female 129S6/SvEv mice [2]; 30 mg/kg", "result": 0.8647}, {"measurement": "Freezing during 3-shock CFC training vs saline", "setting": "female 129S6/SvEv mice [2]; female mice", "result": "did not alter freezing"}, {"measurement": "Freezing during 3-shock CFC training vs saline", "setting": "female 129S6/SvEv mice [2]; female mice, listed as (R, S)-ketamine", "result": "did not alter fear encoding"}, {"measurement": "Freezing during CFC training vs saline", "setting": "female 129S6/SvEv mice [2]; 2.5 and 10 mg/kg, 3 days before CFC, female mice", "result": "significantly increased freezing compared to saline"}, {"measurement": "Freezing during CFC training vs saline", "setting": "female 129S6/SvEv mice [2]; 2.5 and 10 mg/kg, 3 days before CFC, female mice; listed as R,S)-ketamine", "result": "significantly increased freezing during the last minute"}, {"measurement": "Freezing during context re-exposure vs saline", "setting": "female 129S6/SvEv mice [2]; 3 days before CFC, female mice", "result": "do not affect freezing during re-exposure"}, {"measurement": "p, Freezing (min 1-5)", "setting": "female 129S6/SvEv mice [2]; [3]", "result": 0.7546}, {"measurement": "p, Freezing (min 2)", "setting": "female 129S6/SvEv mice [2]; [3]", "result": 0.9996}, {"measurement": "p, Freezing (min 3)", "setting": "female 129S6/SvEv mice [2]; [3]", "result": 0.6267}, {"measurement": "p, Freezing (min 4)", "setting": "female 129S6/SvEv mice [2]; [3]", "result": 0.1951}, {"measurement": "p, Freezing (min 5)", "setting": "female 129S6/SvEv mice [2]; [3]", "result": 0.4912}, {"measurement": "p, Freezing (min 1-5)", "setting": "female 129S6/SvEv mice [2]; [4]", "result": 0.8986}, {"measurement": "p, Freezing (min 2)", "setting": "female 129S6/SvEv mice [2]; [4]", "result": 0.9240}, {"measurement": "p, Freezing (min 3)", "setting": "female 129S6/SvEv mice [2]; [4]", "result": 0.9864}, {"measurement": "p, Freezing (min 4)", "setting": "female 129S6/SvEv mice [2]; [4]", "result": 0.6904}, {"measurement": "p, Freezing (min 5)", "setting": "female 129S6/SvEv mice [2]; [4]", "result": 0.6667}, {"measurement": "p, Freezing (min 1-5)", "setting": "female 129S6/SvEv mice [2]; [5]", "result": 0.8647}, {"measurement": "p, Freezing (min 2)", "setting": "female 129S6/SvEv mice [2]; [5]", "result": 0.6079}, {"measurement": "p, Freezing (min 3)", "setting": "female 129S6/SvEv mice [2]; [5]", "result": 0.8139}, {"measurement": "p, Freezing (min 4)", "setting": "female 129S6/SvEv mice [2]; [5]", "result": 0.9885}, {"measurement": "p, Freezing (min 5)", "setting": "female 129S6/SvEv mice [2]; [5]", "result": 0.9996}, {"measurement": "p, Freezing (min 1-5)", "setting": "female 129S6/SvEv mice [2]; [6]", "result": 0.5398}, {"measurement": "p, Freezing (min 4)", "setting": "female 129S6/SvEv mice [2]; [6]", "result": 0.9957}, {"measurement": "p, Freezing (min 5)", "setting": "female 129S6/SvEv mice [2]; [6]", "result": 0.2720}, {"measurement": "p, Freezing (min 1-5)", "setting": "female 129S6/SvEv mice [2]; [7]", "result": ">0.9999"}, {"measurement": "p, Freezing (min 4)", "setting": "female 129S6/SvEv mice [2]; [7]", "result": 0.9996}, {"measurement": "p, Freezing (min 5)", "setting": "female 129S6/SvEv mice [2]; [7]", "result": 0.9996}, {"measurement": "p, Freezing (min 1-5)", "setting": "female 129S6/SvEv mice [2]; Contextual Fear Conditioning Training, Dunnett test Sal vs. drug (30)", "result": 0.9998}]}
